Laboratory results taken from PubChem BioAssay (NCI).
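Protocol summary: plate cells (96-well), add compound at 5 concentrations, incubate 48 h, interpolate endpoints linearly. GI50 marks 50% less growth. TGI is the concentration that stops growth completely.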

The compounds below were run on SR leukemia (assay: NCI anticancer screen, dose series, 48 h).
Work on NC(N)=Nc1nc2ccccc2o1 yielded a GI50 greater than 100 µM and a TGI greater than 100 µM.

What follows are compounds tested on NCI-H226 lung (assay: NCI anticancer screen, dose series, 48 h).
Work on COc1ccc(-c2c(C#N)c(N3CCOCC3)nc3[nH]c(=S)[nH]c(=S)c23)cc1OC yielded a GI50 of 18.8 µM and a TGI of 89.6 µM.
Compound Cc1ccsc1/C=N/Nc1cnccn1 has a TGI greater than 100 µM.
In the case of NC(N)=Nc1nc2ccccc2o1, the GI50 is reported as greater than 100 µM and the TGI is reported as greater than 100 µM.
COc1cc(/C=C2\CCCCC3=C2N=C2SC(C)=CN2C3c2cc(OC)c(OC)c(OC)c2)cc(OC)c1OC (stereo not drawn) gave a GI50 of 11 µM and a TGI greater than 100 µM.

What follows are compounds tested on K-562 leukemia (assay: NCI anticancer screen, dose series, 48 h).
COc1ccc(-c2c(C#N)c(N3CCOCC3)nc3[nH]c(=S)[nH]c(=S)c23)cc1OC gave a GI50 of 36.7 µM and a TGI greater than 100 µM.
Work on Cc1ccsc1/C=N/Nc1cnccn1 yielded a TGI greater than 100 µM.
For NC(N)=Nc1nc2ccccc2o1, the GI50 was greater than 100 µM and the TGI was greater than 100 µM.
COc1cc(/C=C2\CCCCC3=C2N=C2SC(C)=CN2C3c2cc(OC)c(OC)c(OC)c2)cc(OC)c1OC (stereo not drawn) gave a GI50 of 0.36 µM and a TGI greater than 100 µM.

What follows are compounds tested on RPMI-8226 leukemia (assay: NCI anticancer screen, dose series, 48 h).
With OC(c1cc2cc(Cl)ccc2c2cc(C(F)(F)F)ccc12)C1CCCCN1 (stereo not drawn) the GI50 was 2.21 µM and the TGI was 4.92 µM.
For COc1ccc(-c2c(C#N)c(N3CCOCC3)nc3[nH]c(=S)[nH]c(=S)c23)cc1OC, the GI50 was 9.74 µM and the TGI was 70.5 µM.
Compound Cc1ccsc1/C=N/Nc1cnccn1 has a TGI greater than 100 µM.
With COc1cc(/C=C2\CCCCC3=C2N=C2SC(C)=CN2C3c2cc(OC)c(OC)c(OC)c2)cc(OC)c1OC (stereo not drawn) the GI50 was 0.013 µM and the TGI was greater than 100 µM.

Each compound was assayed on MOLT-4 leukemia (assay: NCI anticancer screen, dose series, 48 h).
COc1ccc(-c2c(C#N)c(N3CCOCC3)nc3[nH]c(=S)[nH]c(=S)c23)cc1OC showed a GI50 of 39.6 µM and a TGI greater than 100 µM.
With Cc1ccsc1/C=N/Nc1cnccn1 the TGI was greater than 100 µM.
In the case of NC(N)=Nc1nc2ccccc2o1, the GI50 is reported as greater than 100 µM and the TGI is reported as greater than 100 µM.
Work on COc1cc(/C=C2\CCCCC3=C2N=C2SC(C)=CN2C3c2cc(OC)c(OC)c(OC)c2)cc(OC)c1OC (stereo not drawn) yielded a GI50 of 0.542 µM and a TGI of 78 µM.

The compounds below were run on SK-OV-3 ovarian (assay: NCI anticancer screen, dose series, 48 h).
With COc1ccc(-c2c(C#N)c(N3CCOCC3)nc3[nH]c(=S)[nH]c(=S)c23)cc1OC the GI50 was 29.1 µM and the TGI was greater than 100 µM.
Work on Cc1ccsc1/C=N/Nc1cnccn1 yielded a TGI greater than 100 µM.
Work on NC(N)=Nc1nc2ccccc2o1 yielded a GI50 greater than 100 µM and a TGI greater than 100 µM.
For COc1cc(/C=C2\CCCCC3=C2N=C2SC(C)=CN2C3c2cc(OC)c(OC)c(OC)c2)cc(OC)c1OC (stereo not drawn), the GI50 was 6.23 µM and the TGI was greater than 100 µM.

What follows are compounds tested on U251 CNS (assay: NCI anticancer screen, dose series, 48 h).
COc1ccc(-c2c(C#N)c(N3CCOCC3)nc3[nH]c(=S)[nH]c(=S)c23)cc1OC showed a GI50 of 46.5 µM and a TGI greater than 100 µM.
For Cc1ccsc1/C=N/Nc1cnccn1, the TGI was greater than 100 µM.
In the case of NC(N)=Nc1nc2ccccc2o1, the GI50 is reported as greater than 100 µM and the TGI is reported as greater than 100 µM.
With COc1cc(/C=C2\CCCCC3=C2N=C2SC(C)=CN2C3c2cc(OC)c(OC)c(OC)c2)cc(OC)c1OC (stereo not drawn) the GI50 was 19.2 µM and the TGI was greater than 100 µM.

The compounds below were run on OVCAR-8 ovarian (assay: NCI anticancer screen, dose series, 48 h).
In the case of COc1ccc(-c2c(C#N)c(N3CCOCC3)nc3[nH]c(=S)[nH]c(=S)c23)cc1OC, the GI50 is reported as 34.5 µM and the TGI is reported as greater than 100 µM.
Work on Cc1ccsc1/C=N/Nc1cnccn1 yielded a TGI greater than 100 µM.
For NC(N)=Nc1nc2ccccc2o1, the GI50 was 49.2 µM and the TGI was greater than 100 µM.
For COc1cc(/C=C2\CCCCC3=C2N=C2SC(C)=CN2C3c2cc(OC)c(OC)c(OC)c2)cc(OC)c1OC (stereo not drawn), the GI50 was 11.9 µM and the TGI was greater than 100 µM.

Each compound was assayed on SK-MEL-28 melanoma (assay: NCI anticancer screen, dose series, 48 h).
COc1ccc(-c2c(C#N)c(N3CCOCC3)nc3[nH]c(=S)[nH]c(=S)c23)cc1OC was tested, and the GI50 was greater than 100 µM and the TGI was greater than 100 µM.
Cc1ccsc1/C=N/Nc1cnccn1 showed a TGI greater than 100 µM.
NC(N)=Nc1nc2ccccc2o1 gave a GI50 greater than 100 µM and a TGI greater than 100 µM.
Work on COc1cc(/C=C2\CCCCC3=C2N=C2SC(C)=CN2C3c2cc(OC)c(OC)c(OC)c2)cc(OC)c1OC (stereo not drawn) yielded a GI50 of 89.1 µM and a TGI greater than 100 µM.

Each compound was assayed on SNB-75 CNS (assay: NCI anticancer screen, dose series, 48 h).
Work on OC(c1cc2cc(Cl)ccc2c2cc(C(F)(F)F)ccc12)C1CCCCN1 (stereo not drawn) yielded a GI50 of 1.69 µM and a TGI of 3.14 µM.
In the case of Cc1ccsc1/C=N/Nc1cnccn1, the TGI is reported as greater than 100 µM.
Work on NC(N)=Nc1nc2ccccc2o1 yielded a GI50 greater than 100 µM and a TGI greater than 100 µM.
Work on COc1cc(/C=C2\CCCCC3=C2N=C2SC(C)=CN2C3c2cc(OC)c(OC)c(OC)c2)cc(OC)c1OC (stereo not drawn) yielded a GI50 of 1.9 µM and a TGI of 9.09 µM.

The compounds below were run on SK-MEL-5 melanoma (assay: NCI anticancer screen, dose series, 48 h).
Compound COc1ccc(-c2c(C#N)c(N3CCOCC3)nc3[nH]c(=S)[nH]c(=S)c23)cc1OC has a GI50 of 27.5 µM and a TGI greater than 100 µM.
With Cc1ccsc1/C=N/Nc1cnccn1 the TGI was greater than 100 µM.
For NC(N)=Nc1nc2ccccc2o1, the GI50 was greater than 100 µM and the TGI was greater than 100 µM.
COc1cc(/C=C2\CCCCC3=C2N=C2SC(C)=CN2C3c2cc(OC)c(OC)c(OC)c2)cc(OC)c1OC (stereo not drawn) was tested, and the GI50 was 0.077 µM and the TGI was 21 µM.

Each compound was assayed on HS 578T breast (assay: NCI anticancer screen, dose series, 48 h).
In the case of COc1ccc(-c2c(C#N)c(N3CCOCC3)nc3[nH]c(=S)[nH]c(=S)c23)cc1OC, the GI50 is reported as 47.3 µM and the TGI is reported as greater than 100 µM.
In the case of Cc1ccsc1/C=N/Nc1cnccn1, the TGI is reported as greater than 100 µM.
COc1cc(/C=C2\CCCCC3=C2N=C2SC(C)=CN2C3c2cc(OC)c(OC)c(OC)c2)cc(OC)c1OC (stereo not drawn) showed a GI50 of 16 µM and a TGI greater than 100 µM.

The compounds below were run on MDA-MB-231 breast (assay: NCI anticancer screen, dose series, 48 h).
Compound COc1ccc(-c2c(C#N)c(N3CCOCC3)nc3[nH]c(=S)[nH]c(=S)c23)cc1OC has a GI50 of 13.9 µM and a TGI of 77.1 µM.
Work on Cc1ccsc1/C=N/Nc1cnccn1 yielded a TGI greater than 100 µM.
With NC(N)=Nc1nc2ccccc2o1 the GI50 was greater than 100 µM and the TGI was greater than 100 µM.
With COc1cc(/C=C2\CCCCC3=C2N=C2SC(C)=CN2C3c2cc(OC)c(OC)c(OC)c2)cc(OC)c1OC (stereo not drawn) the GI50 was 4.24 µM and the TGI was greater than 100 µM.

The compounds below were run on NCI-H23 lung (assay: NCI anticancer screen, dose series, 48 h).
COc1ccc(-c2c(C#N)c(N3CCOCC3)nc3[nH]c(=S)[nH]c(=S)c23)cc1OC was tested, and the GI50 was 20.9 µM and the TGI was greater than 100 µM.
Cc1ccsc1/C=N/Nc1cnccn1 showed a TGI greater than 100 µM.
For NC(N)=Nc1nc2ccccc2o1, the GI50 was greater than 100 µM and the TGI was greater than 100 µM.
Compound COc1cc(/C=C2\CCCCC3=C2N=C2SC(C)=CN2C3c2cc(OC)c(OC)c(OC)c2)cc(OC)c1OC (stereo not drawn) has a GI50 of 32.2 µM and a TGI greater than 100 µM.

Each compound was assayed on CAKI-1 renal (assay: NCI anticancer screen, dose series, 48 h).
Work on COc1ccc(-c2c(C#N)c(N3CCOCC3)nc3[nH]c(=S)[nH]c(=S)c23)cc1OC yielded a GI50 of 30.7 µM and a TGI of 87.3 µM.
For Cc1ccsc1/C=N/Nc1cnccn1, the TGI was greater than 100 µM.
NC(N)=Nc1nc2ccccc2o1 was tested, and the GI50 was greater than 100 µM and the TGI was greater than 100 µM.
In the case of COc1cc(/C=C2\CCCCC3=C2N=C2SC(C)=CN2C3c2cc(OC)c(OC)c(OC)c2)cc(OC)c1OC (stereo not drawn), the GI50 is reported as 73.3 µM and the TGI is reported as greater than 100 µM.
